Experimental data as given in patent US20200368315A1, “ANTIMICROBIAL PEPTIDES AND ADMIXTURES THEREOF SHOWING ANTIMICROBIAL ACTIVITY AGAINST GRAM-NEGATIVE PATHOGENS” (priority 2017, published 2020).
In brackets after ≈: the same amount, converted by molar mass.

Key:
[1] = in vitro; details: human
Experimental: (§1) ATP levels were measured by adding 50 μL of CellTiter-Glo reagent to each well and after 5 minutes of incubation luminescence was measured with SpectraMax i3.
(§2) 96-well plates were seeded with HEK293 cells at concentration of 30,000 cells per well in 100 μL of DMEM growth media supplemented with 1% NEAA and 10% FBS. Border wells were filled with 100 μL of sterile PBS. The next day compounds were added to cells. Compounds were first 2× diluted in 96-well V-bottom plate in PBS. After that compounds were mixed with media in 96-deep-well plate for final concentrations. Growth media from 3 plates was aspirated and replaced with 100 μL of prepared compounds. Compounds were tested in duplicate. ATP levels were measured by adding 50 μL of CellTiter-Glo reagent to each well and after 5 minutes of incubation luminescence was measured with SpectraMax i3. […] The potential effects were then calculated and presented as IC50 values (μg/mL).

[2] = tested on: Acinetobacter baumannii ATCC 17978; assay: microbe, parasite or virus in culture; assay type: cell-based; details: ATCC 17978
Experimental: (§3) Testing was performed according to CLSI (Clinical Laboratory Standards Institute) guidelines. Read out of the study was determination of MIC—minimal inhibitory concentration expressed in μg/mL.
(§4) Out of these PBS solutions, 76.8 μL was transferred to 1423.2 μL of MH media in deep well for testing compound alone. […] Out of these working solutions 100 μL were transferred to wells in the third column of 96-well assay plates. Assay plates were previously filled with 50 μL of MH media in all wells except for the wells in the third column.
(§5) Microorganisms used were all revived from skim milk storage at −70° C. by plating them on MH agar plates. The following day a single colony of each microorganism was again streaked on fresh agar plates. The next day, using direct colony suspension method, broth solutions that achieve turbidity equivalent to 0.5 McFarland standard for each microorganism were prepared. […] Out of these suspensions, actual inoculums were prepared by diluting them 100× with MH media giving final microorganism count of 2-8×10^5 CFU/mL. For each strain of microorganisms, 20 mL of these inoculum solutions were prepared. From the second to the twelfth column of 96-well plates, 50 μL of these solutions were transferred per well. To the first column, 50 μL per well of pure growth media was added. In this manner the first column was used as sterility control of media used, the second column was used as control of microorganism's growth and the rest of the plate was used for MIC determination. All plates were incubated for 16-24 h at 37° C.
(§6) MIC value was determined by visual inspection of bacterial growth within 96-well plates. The first column in which there was no visible growth of bacteria was determined as MIC value for peptide or combination tested in that particular row.

[3] = tested on: Pseudomonas aeruginosa ATCC 27853; assay: microbe, parasite or virus in culture; assay type: cell-based; details: ATCC 27853
Experimental: as §3, §4, §5, §6

[4] = tested on: Escherichia coli ATCC 25922; assay: microbe, parasite or virus in culture; assay type: cell-based; details: ATCC 25922
Experimental: as §3, §4, §5, §6

[5] = tested on: Klebsiella pneumoniae ATCC 700603; assay: microbe, parasite or virus in culture; assay type: cell-based; details: ATCC 700603
Experimental: as §3, §4, §5, §6

[6] = tested on: Klebsiella pneumoniae B1945, clinical isolate; assay: microbe, parasite or virus in culture; details: B1945, clinical isolate
Experimental: as §3, §4, §5, §6

[7] = tested on: Klebsiella pneumoniae ATCC BAA-2524; assay: microbe, parasite or virus in culture; details: ATCC BAA-2524
Experimental: as §3, §4, §5, §6

[8] = tested on: Acinetobacter baumannii ATCC BAA-1605; assay: microbe, parasite or virus in culture; details: ATCC BAA-1605
Experimental: as §3, §4, §5, §6

[9] = tested on: Escherichia coli ATCC BAA-2452; assay: microbe, parasite or virus in culture; details: ATCC BAA-2452
Experimental: as §3, §4, §5, §6

[10] = tested on: Escherichia coli B1927, clinical isolate; assay: microbe, parasite or virus in culture; details: B1927, clinical isolate
Experimental: as §3, §4, §5, §6

[11] = tested on: Pseudomonas aeruginosa ATCC BAA-2108; assay: microbe, parasite or virus in culture; details: ATCC BAA-2108
Experimental: as §3, §4, §5, §6

[12] = tested on: Pseudomonas aeruginosa B1954, clinical isolate; assay: microbe, parasite or virus in culture; details: B1954, clinical isolate
Experimental: as §3, §4, §5, §6

[13] = tested on: Acinetobacter baumannii B2026, clinical isolate; assay: microbe, parasite or virus in culture; details: B2026, clinical isolate
Experimental: as §3, §4, §5, §6

[14] = tested on: human red blood cells (HRBc); assay: Hemolytic test; details: red cells of human, 1 h
Experimental: Fresh human red blood cells (HRBc) were used for the hemolytic tests. After incubation with different concentrations of test compounds at 37° C. for 1 hour, the absorbance of the supernatant were measured.

[15] = tested on: L. lactis MG1363; details: MG1363
[16] = tested on: HEK293 cells; assay: in vitro
Experimental: as §1, §2

[17] = tested on: E. coli LMG15862; assay: microbe, parasite or virus in culture; assay type: cell-based, Escherichia coli; details: LMG15862
How it was run: (§7)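 Broth microdilution MIC in duplicate, polypropylene plates, Mueller Hinton Broth, final inoculum 5*10^5 CFU/mL, 2-fold serial compound dilutions, 37° C. MIC taken as lowest concentration inhibiting visible growth; inoculum checked by plating a dilution of the growth control.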

[18] = tested on: A. baumannii LMG01041; assay: microbe, parasite or virus in culture; assay type: cell-based, Acinetobacter baumannii; details: LMG01041
How it was run: as §7

[19] = tested on: E. aerogenes LMG 02094; assay: microbe, parasite or virus in culture; assay type: cell-based, Enterobacter aerogenes; details: LMG 02094
How it was run: as §7

Row | Compound | IC50 [1] | MIC [2] [mg/L] | MIC [3] [mg/L] | MIC [4] [mg/L] | MIC [5] [mg/L] | MIC [6] [mg/L] | MIC [7] [mg/L] | MIC [8] [mg/L] | MIC [9] [mg/L] | MIC [10] [mg/L] | MIC [11] [mg/L] | MIC [12] [mg/L] | MIC [13] [mg/L] | further results
1 | CC[C@@H](C)[C@@H](NC(=O)[C@@H](CCCNC(=N)N)NC(=O)[C@@H](CCCNC(=N)N)NC(=O)[C@@H](Cc1ccccc1)NC(=O)[C@@H](CC(C)C)NC(=O)[C@@H](CCCNC(=N)N)NC(=O)[C@H](N)CCCNC(=N)N)C(=O)N[C@H](CC(C)C)C(=O)N[C@H](CCCNC(=N)N)C(=O)N[C@H](Cc1c[nH]c2ccccc12)C(=O)N[C@H](CC(C)C)C(N)=O [D6] | 52.1 mg/L | 2 | 4 | 2 | 4 | 8 | 4 | 8 | 2 | 2 | 8 | 4 | 4 | –
2 | CC[C@@H](C)[C@@H](NC(=O)[C@H](N)CCCNC(=N)N)C(=O)N[C@@H](C(=O)N[C@H](CCC(N)=O)C(=O)N[C@H](CCCNC(=N)N)C(=O)N[C@@H](C(=O)N[C@H](CCCCN)C(=O)N[C@H](CCCCN)C(=O)N[C@H](Cc1c[nH]c2ccccc12)C(=O)N[C@H](CC(C)C)C(=O)N[C@H](CCCNC(=N)N)C(N)=O)[C@H](C)CC)C(C)C [D8] | > 64 mg/L | 16 | 64 | 8 | >128 | 32 | >128 | 16 | 8 | 4 | >128 | 128 | 16 | –
3 | CC[C@@H](C)[C@@H](NC(=O)[C@H](N)CCCNC(=N)N)C(=O)N[C@@H](C(=O)N[C@H](CCC(N)=O)C(=O)N[C@H](CCCNC(=N)N)C(=O)N[C@@H](C(=O)N[C@H](CCCCN)C(=O)N[C@H](CCCCN)C(=O)N[C@H](Cc1c[nH]c2ccccc12)C(=O)N[C@H](CC(C)C)C(=O)N[C@H](CCCNC(=N)N)C(N)=O)[C@H](C)CC)C(C)C [GNP-D8] | ≥ 42.8 µM | – | – | – | – | – | – | – | – | – | – | – | – | HC50 (hemolytic activity) [14]: >200 µM; MIC value of antimicrobial compounds alone [15]: 16 µM; Effect on ATP levels [16]: do not affect the ATP levels; MIC value [17]: 4 µM (≈ 5.98 µg/mL); MIC value [18]: 8 µM (≈ 12 µg/mL); MIC value [7]: >85.62 µM; MIC value [8]: 10.7 µM; MIC value [9]: 5.35 µM; MIC value [11]: >85.62 µM; MIC value [12]: 85.62 µM; MIC value [13]: 10.7 µM; MIC value [19]: 32 µM (≈ 47.8 µg/mL)
